Measurements: publication PMC6172451 (Frontiers in Microbiology, 2018)
Read-outs that look alike come from different tables or passages of the source. Bridges are numbered along the chain shown (N, C = ends). Where no end group is shown, it is not given here.

Tests used:
papain = papain (Carica papaya, UniProt P00784); conditions: 360 μL bacteriocin (256 μg/mL) + 40 μL papain, final 1 mg/mL; pH 6.5; 37°C; 3 h; read-out activity against L. monocytogenes 54002; triplicate
Experimental: (§1) After 3 h of incubation at appropriate the temperature (Table 3), the activity against indicator strain (L. monocytogenes 54002) was determined. Non-enzymic treatment was used as control test.

chymotrypsin = chymotrypsin (Bos taurus, UniProt P00766); conditions: 360 μL bacteriocin (256 μg/mL) + 40 μL chymotrypsin, final 1 mg/mL; pH 7.8; 25°C; 3 h; read-out activity against L. monocytogenes 54002; triplicate
Experimental: as §1

proteinase K = proteinase K (Parengyodontium album, UniProt P06873); conditions: 360 μL bacteriocin (256 μg/mL) + 40 μL proteinase K, final 1 mg/mL; pH 7.5; 37°C; 3 h; read-out activity against L. monocytogenes 54002; triplicate
proteinase K, sequence (P06873 106-384): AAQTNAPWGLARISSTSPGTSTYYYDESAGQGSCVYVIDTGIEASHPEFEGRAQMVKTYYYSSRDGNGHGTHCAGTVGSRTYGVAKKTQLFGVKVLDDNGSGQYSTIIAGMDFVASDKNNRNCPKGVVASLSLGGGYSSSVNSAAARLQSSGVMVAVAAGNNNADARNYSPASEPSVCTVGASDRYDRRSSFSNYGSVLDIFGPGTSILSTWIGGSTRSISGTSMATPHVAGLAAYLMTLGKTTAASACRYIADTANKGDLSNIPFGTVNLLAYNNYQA
Experimental: as §1

pepsin = pepsin (Sus scrofa, UniProt P00791); conditions: 360 μL bacteriocin (256 μg/mL) + 40 μL pepsin, final 1 mg/mL; pH 3; 37°C; 3 h; read-out activity against L. monocytogenes 54002; triplicate
pepsin, sequence (P00791 60-385): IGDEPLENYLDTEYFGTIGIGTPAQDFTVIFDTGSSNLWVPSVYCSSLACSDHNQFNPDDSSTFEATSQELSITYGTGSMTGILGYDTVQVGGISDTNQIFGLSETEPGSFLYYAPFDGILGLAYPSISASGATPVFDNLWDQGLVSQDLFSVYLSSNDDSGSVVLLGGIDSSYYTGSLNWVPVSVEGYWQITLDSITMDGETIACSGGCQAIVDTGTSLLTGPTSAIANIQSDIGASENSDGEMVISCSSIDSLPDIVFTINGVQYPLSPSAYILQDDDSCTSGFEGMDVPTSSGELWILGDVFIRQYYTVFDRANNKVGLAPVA
Experimental: as §1

L. monocytogenes 54002 [1] = assay: Mode of action: viable cells and optical density; type: cell-based, Listeria monocytogenes; conditions: 256 μg/mL bacteriocin, about 10^8 CFU/mL in 20 mM sodium phosphate buffer, 37°C, after 3 h
Experimental: Cells were harvested and resuspended in sterile 20 mM sodium phosphate buffer to give 10^8 CFU/mL approximately. Bacteriocin was added for final concentration of 256 μg/mL, while a sample without added bacteriocin was used as control. All samples were incubated for 5 h at 37°C. The optical density (600 nm) and viable cells were monitored every 1 h ([Deraz et al., 2007]).

[2] = pH stability, remaining antibacterial activity; type: physicochemical; conditions: 256 μg/mL, 3 h at 37°C, readjusted to pH 6.0
[3] = 1% (V/V) Tween 20, Tween 80, urea, and EDTA at 37°C for 3 h
L. monocytogenes 54002 [4] = assay: Membrane permeabilization, SYTOX Green stain; type: cell-based, Listeria monocytogenes
Experimental: The fluorescence was detected using RT-PCR instrument combined with 5 μM SYTOX^TM Green Stain (Invitrogen, United States). Cells were resuspended in sterile 20 mM sodium phosphate buffer to give 10^6 CFU/mL approximately. Bacteriocin was added at final concentration of 256 and 128 μg/mL, respectively, while a sample with added sodium phosphate buffer was used as control. Meanwhile, the treated cells were examined using confocal laser scanning microscopy (CLSM; Leica, United States) combined with 5 μM SYTOX^TM Green Dead Cell Stain.

papain, sequence (P00784 134-345): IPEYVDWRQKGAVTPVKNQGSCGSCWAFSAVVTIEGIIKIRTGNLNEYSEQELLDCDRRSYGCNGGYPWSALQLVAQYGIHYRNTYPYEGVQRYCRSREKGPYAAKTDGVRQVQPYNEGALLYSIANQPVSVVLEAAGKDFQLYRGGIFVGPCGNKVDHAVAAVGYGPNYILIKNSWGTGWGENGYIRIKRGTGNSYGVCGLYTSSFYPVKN

In the case of “VIADKYYGNGVSCGKHTCTVDWGEAFSCSVSHLANFGHGKC (disulfide 13-18; cysteines drawn unpaired) [plantaricin LPL-1]”, the “Diameter (mm) of inhibition zone after enzyme treatment” value (“Diameter (mm) of inhibition zone” for short) (papain) is reported as 0 mm, the “Diameter (mm) of inhibition zone” value (chymotrypsin) is reported as 0 mm and the “Diameter (mm) of inhibition zone” value (proteinase K) is reported as 0 mm. The “Diameter (mm) of inhibition zone” value (pepsin) was 0 mm, the “Decrease of optical density (600 nm)” value (L. monocytogenes 54002 [1]) was 0.69 units and the “Decrease of the number of viable cells” value (L. monocytogenes 54002 [1]) was 2.11 Log10 cfu. For the same sequence, the “Thermal stability in words” value (60, 80, and 100°C for 15 and 30 min) was “remained stable”, the “Remaining antibacterial activity (%)” value (121°C, 20 min, 256 μg/mL, autoclave, Figure 5B) was 58.82% and the “Remaining antibacterial activity (%)” value ([2]; pH 10, pH set with HCl/NaOH, activity against indicator, Figure 5A) was 25%. The Activity kept ([2]; pH between 2.0 and 7.0) was 90%, the “Stability toward surfactants in words” value [3] was “remained stable” and the “Amounts of dead cells (CLSM)” value (L. monocytogenes 54002 [4]; 256 μg/mL for 10, 20 and 30 min, 5 μM SYTOX Green Dead Cell Stain, confocal laser scanning microscopy) was “increased gradually”. The “Fluorescence intensity (SYTOX Green)” value (L. monocytogenes 54002 [4]; 128 and 256 μg/mL, about 10^6 CFU/mL, 5 μM SYTOX Green, RT-PCR instrument, control remained stable) was “increased”.
